# From patent US8795977B2, “Method for screening a potential modulator compound of a taste receptor” (Conopco, Inc., priority 2009, dated 2014)
# Biological target: T1, T1R1/T1R3 umami receptor (Homo sapiens, UniProt Q7RTX0+Q7RTX1, C757R)
# T1 construct: expressed in transfected cells; host or cells: HEK293 cells stably expressing Gα15, transiently transfected
# T1 sequence (Q7RTX1 21-841): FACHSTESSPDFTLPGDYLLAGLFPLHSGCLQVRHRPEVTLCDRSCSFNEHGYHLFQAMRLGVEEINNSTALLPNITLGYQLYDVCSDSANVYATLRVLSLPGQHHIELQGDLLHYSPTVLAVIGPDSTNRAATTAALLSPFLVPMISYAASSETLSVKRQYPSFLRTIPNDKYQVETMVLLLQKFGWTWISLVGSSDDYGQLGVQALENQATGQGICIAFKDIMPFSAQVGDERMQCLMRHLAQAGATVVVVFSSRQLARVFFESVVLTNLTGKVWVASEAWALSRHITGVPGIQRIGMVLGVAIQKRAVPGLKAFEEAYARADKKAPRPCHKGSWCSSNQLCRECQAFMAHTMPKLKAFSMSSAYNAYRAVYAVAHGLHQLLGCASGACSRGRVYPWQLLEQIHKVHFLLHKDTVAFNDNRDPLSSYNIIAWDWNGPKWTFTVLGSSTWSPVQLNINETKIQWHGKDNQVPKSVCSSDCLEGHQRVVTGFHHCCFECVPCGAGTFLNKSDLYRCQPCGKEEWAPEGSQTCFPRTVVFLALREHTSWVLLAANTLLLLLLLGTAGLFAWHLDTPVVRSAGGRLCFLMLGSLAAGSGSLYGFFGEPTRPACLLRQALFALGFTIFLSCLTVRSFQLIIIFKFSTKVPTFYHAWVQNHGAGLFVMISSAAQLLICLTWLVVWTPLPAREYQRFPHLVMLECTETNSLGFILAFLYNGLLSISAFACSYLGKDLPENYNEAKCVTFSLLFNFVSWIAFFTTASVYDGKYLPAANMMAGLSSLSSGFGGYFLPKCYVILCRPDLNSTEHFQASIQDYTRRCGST
# T1 sequence (Q7RTX0 21-852 C757R): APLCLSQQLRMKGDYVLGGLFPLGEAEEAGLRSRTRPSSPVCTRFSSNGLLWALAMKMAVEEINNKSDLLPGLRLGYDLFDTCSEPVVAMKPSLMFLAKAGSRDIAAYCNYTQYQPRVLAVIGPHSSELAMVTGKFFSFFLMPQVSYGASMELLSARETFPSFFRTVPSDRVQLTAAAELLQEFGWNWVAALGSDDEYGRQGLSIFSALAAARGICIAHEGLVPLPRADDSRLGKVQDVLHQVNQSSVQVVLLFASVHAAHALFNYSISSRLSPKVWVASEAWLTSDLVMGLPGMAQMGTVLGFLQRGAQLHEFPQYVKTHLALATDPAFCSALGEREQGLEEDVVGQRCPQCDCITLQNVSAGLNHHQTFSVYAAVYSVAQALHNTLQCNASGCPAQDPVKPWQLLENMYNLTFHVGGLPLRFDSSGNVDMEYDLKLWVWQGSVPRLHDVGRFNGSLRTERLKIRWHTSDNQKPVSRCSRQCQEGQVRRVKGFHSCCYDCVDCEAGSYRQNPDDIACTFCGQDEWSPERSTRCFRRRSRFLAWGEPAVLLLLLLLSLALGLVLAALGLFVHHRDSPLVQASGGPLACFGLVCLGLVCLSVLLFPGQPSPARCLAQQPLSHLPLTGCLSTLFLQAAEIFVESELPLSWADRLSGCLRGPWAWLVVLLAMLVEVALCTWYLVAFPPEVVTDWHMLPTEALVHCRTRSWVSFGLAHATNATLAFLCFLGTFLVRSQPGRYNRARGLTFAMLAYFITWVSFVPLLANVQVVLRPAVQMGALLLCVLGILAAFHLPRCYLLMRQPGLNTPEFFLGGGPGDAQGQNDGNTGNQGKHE
# Assay: Calcium-based receptor assay (release of intracellular calcium, Fluo-4-AM)
# Type: cell-based
# Design: key to T1R1/T1R3 receptor-specific signal, Calcium assay: +: For the calcium assay, cells expressing the umami receptor and Gα15 are compared with cells expressing Gα15 only; the difference between these signals is defined as umami receptor-specific signal; −: it was not possible to achieve umami receptor-specific signals using representative extracts and other complex mixtures using the calcium-based receptor assay
# Conditions: for release of intracellular calcium, T1R1/T1R3 umami receptor, average / release of intracellular calcium, T1R1/T1R3 umami receptor, meas. 1 / release of intracellular calcium, T1R1/T1R3 umami receptor, meas. 2: change in fluorescence (ΔF)
# Protocol: FIG. 1 Activation of the T1R1/T1R3 umami receptor expressed in HEK293-Gα15 cells as measured by monitoring the release of intracellular calcium using the calcium fluorescent marker Fluo-4-AM as described in Example 2. Activity of the umami receptor was measured as the change in fluorescence which was calculated by subtracting the […]. Test solutions comprise extracts as indicated and prepared as described in Example 2. […]
# We developed a unique functional umami receptor assay to evaluate and quantify umami in tomato and other crude plant or food extracts using the BRET technique: to test the principle we used the donor and acceptor proteins relating to BRET-2. In short, the human T1R1 and T1R3 taste receptors were cloned and fused with Renilla luciferase (Rluc) as donor protein; green fluorescent protein-2 (GFP2) served as acceptor protein and was fused to β-arrestin-2. Both constructs were transfected into a HEK293 cell line cells) for heterologous expression of the proteins. Various mammalian cell lines have been reported to be highly suitable for expression of receptors or other proteins, with HEK293 (human embryonic kidney) cells and CHO (Chinese hamster ovary) cells being some of the most versatile and suitable ones^12. Similarly, GPCRs can be expressed in various ways as described in multiple publications, such as transient^6, 8, 13-15 or stable (constitutive or inducible)^6, 9, 16, 17 expression, depending on the nature of the experiment, the respective receptor or the available time. Upon receptor stimulation with an agonist or crude extracts, the β-arrestin-2/GFP-2 protein interacts with the activated receptor thus bringing GFP-2 in close proximity with luciferase, making energy transfer between these two proteins possible and generating a BRET signal. In the presence of oxygen the luciferase catalyses the transformation of the substrate DeepBlueC into coelenteramide, which can be measured at 395-410 nm. If GFP-2 is in close proximity to the luciferase and energy transfer takes place, the emission will shift to 510 nm; this is referred to as the BRET signal and is expressed as ratio between the acceptor (GFP-2) and the donor (Renilla luciferase). The following experiments are designed to illustrate that conventional calcium-based functional receptor assays are not suitable for measuring the effects of crude extracts; in contrast, the BRET assay (as indicated here with umami) can clearly measure specific receptor responses using crude natural extracts. Moreover, the assay is also sensitive enough for detecting differences of receptor activation between the different tomato samples. Materials & Methods: Chemicals and Media: Fluo-4 AM was from Molecular Probes (# F-14202, prepared as 5 mM stock in DMSO), DMEM (with 4.5 g/l glucose and ultraglutamine, # BE12-604F) was from Lonza, trypsin-EDTA, Lipofectamine 2000, OptiMem and FCS were obtained from Life Technologies Invitrogen. Monosodium glutamate (MSG), Inosine 5′-monophosphate as well as all other chemicals were from Sigma-Aldrich. The plasmid encoding GFP2-β-arrestin-2 was purchased from BioSignal Packard (#6310176). Coelenterazine 400A (a DeepBlueC derivative) and Coelenterazine-H were from VWR International (# BTIU10125-1 and 233903-50, respectively). All other cell culture supplies were from Greiner BioOne. Receptor Fusion Constructs, Cell Lines, and Media: The human T1R1 and human T1R3 umami receptors were fused at their C-terminal in frame to Renilla Luciferase (Rluc) using standard molecular cloning techniques and the codon-humanized pRluc-N3 vector from PerkinElmer (#6310220). For expression of the umami receptors and the construct encoding GFP-2/β-arrestin-2, HEK293 cells (human embryonic kidney cells, ATCC) were used using traditional transfection methods (see also below). HEK293 cells were maintained in DMEM and 10% FBS at 37° C./5% CO2. […]
smiles,measurement,setting,value
"N[C@@H](CCC(=O)O)C(=O)[O-].[Na+] [MSG, Monosodium glutamate]","release of intracellular calcium, T1R1/T1R3 umami receptor, average",100 μM MSG,1170
same,"release of intracellular calcium, T1R1/T1R3 umami receptor, meas. 1",100 μM MSG,1146
same,"release of intracellular calcium, T1R1/T1R3 umami receptor, meas. 2",100 μM MSG,1193
same,"release of intracellular calcium, T1R1/T1R3 umami receptor, average",1 mM MSG,3269
same,"release of intracellular calcium, T1R1/T1R3 umami receptor, meas. 1",1 mM MSG,2548
same,"release of intracellular calcium, T1R1/T1R3 umami receptor, meas. 2",1 mM MSG,3990
same,"release of intracellular calcium, T1R1/T1R3 umami receptor, average",10 mM MSG,6749
same,"release of intracellular calcium, T1R1/T1R3 umami receptor, meas. 1",10 mM MSG,5766
same,"release of intracellular calcium, T1R1/T1R3 umami receptor, meas. 2",10 mM MSG,7732
same,"T1R1/T1R3 receptor-specific signal, Calcium assay",MSG 10 mM,+
same,umami receptor-specific response in the calcium-based receptor assay (in words),receptor-expressing versus control cells,umami receptor-specific responses
